Experimental findings from US6686355B2, “Biphenyl sulfonamides useful as matrix metalloproteinase inhibitors” (Warner-Lambert Company, priority 2001, dated 2004) are described below.

Holding throughout (format): biochemical
In assay [1] the target is MMP-9FL (full length Gelatinase B) (Homo sapiens, UniProt P14780). Kind of assay: Thiopeptolide hydrolysis assay, MMP-9FL. Particulars: thiopeptolide substrate, HEPES pH 7.0, 22° C. An excerpt:
(§1) The assays measure the amount by which a test compound reduces the hydrolysis of a thiopeptolide substrate catalyzed by a matrix metalloproteinase enzyme. Such assays are described in detail by Ye et al., in Biochemistry, 1992;31(45):11231-11235, which is incorporated herein by reference.
(§2) Thiopeptolide substrates show virtually no decomposition or hydrolysis at or below neutral pH in the absence of a matrix metalloproteinase enzyme. A typical thiopeptolide substrate commonly utilized for assays is Ac-Pro-Leu-Gly-thioester-Leu-Leu-Gly-OEt. A 100 μL assay mixture will contain 50 mM of N-2-hydroxyethylpiperazine-N′-2-ethanesulfonic acid buffer (“HEPES”) at pH 7.0, 10 mM CaCl2, 100 μM thiopeptolide substrate, and 1 mM 5,5″-dithio-bis-(2-nitro-benzoic acid) (DTNB). The thiopeptolide substrate concentration may be varied from, for example, 10 to 800 μM to obtain Km and Kcat values. The change in absorbance at 405 nm is monitored on a Thermo Max microplate reader (Molecular Devices, Menlo Park, Calif.) at room temperature (22° C.). The calculation of the amount of hydrolysis of the thiopeptolide substrate is based on E412=13600 M^−1 cm^−1 for the DTNB-derived product 3-carboxy4-nitrothiophenoxide. Assays are carried out with and without matrix metalloproteinase inhibitor compounds, and the amount of hydrolysis is compared for a determination of inhibitory activity of the test compounds.
(§3) Several representative compounds have been evaluated for their ability to inhibit various matrix metalloproteinase enzymes. In Table I, MMP-1FL refers to full length interstitial collagenase; MMP-2FL refers to full length Gelatinase A; MMP-3CD refers to the catalytic domain of stromelysin-1; MMP-7FL refers to full length matrilysin; MMP-9FL refers to full length Gelatinase B; MMP-13CD refers to the catalytic domain of collagenase 3; and MMP-14CD refers to the catalytic domain of MMP-14. Test compounds were evaluated at various concentrations in order to determine their respective IC50 values, the micromolar concentration of compound required to cause a 50% inhibition of the catalytic activity of the respective enzyme.

For assay [2], the target named is MMP-13CD (catalytic domain of collagenase 3) (Homo sapiens, UniProt P45452). The assay is described as follows: Thiopeptolide hydrolysis assay, MMP-13CD. Particulars: thiopeptolide substrate, HEPES pH 7.0, 22° C.
From the text: as §1, §2, §3

Assay [3] has as its target T1, MMP-2FL (full length Gelatinase A) (Homo sapiens, UniProt P08253).
T1 sequence (P08253 110-660): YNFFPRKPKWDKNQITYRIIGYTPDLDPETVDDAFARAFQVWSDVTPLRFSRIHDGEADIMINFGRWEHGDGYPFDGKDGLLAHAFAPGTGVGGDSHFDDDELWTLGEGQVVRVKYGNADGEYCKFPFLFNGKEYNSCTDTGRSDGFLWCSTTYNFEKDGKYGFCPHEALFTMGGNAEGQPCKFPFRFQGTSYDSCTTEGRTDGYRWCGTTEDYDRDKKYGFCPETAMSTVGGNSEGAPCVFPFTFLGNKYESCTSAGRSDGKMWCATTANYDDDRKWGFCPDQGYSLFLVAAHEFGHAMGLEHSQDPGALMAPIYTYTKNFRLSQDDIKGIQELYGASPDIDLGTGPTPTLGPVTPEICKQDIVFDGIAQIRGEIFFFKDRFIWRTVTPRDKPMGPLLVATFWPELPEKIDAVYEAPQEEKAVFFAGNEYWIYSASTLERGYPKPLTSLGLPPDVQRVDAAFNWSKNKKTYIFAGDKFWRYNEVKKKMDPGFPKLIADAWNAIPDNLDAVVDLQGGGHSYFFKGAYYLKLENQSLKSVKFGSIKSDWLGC
Kind of assay: Thiopeptolide hydrolysis assay, MMP-2FL. The following applies: thiopeptolide substrate, HEPES pH 7.0, 22° C.
From the text: as §1, §2, §3

The target in assay [4] is MMP-3CD (catalytic domain of stromelysin-1) (Homo sapiens, UniProt P08254). The assay is described as follows: Thiopeptolide hydrolysis assay, MMP-3CD. Particulars: thiopeptolide substrate, MES pH 6.0.
Chain of MMP-3CD (catalytic domain of stromelysin-1) (P08254 100-272 limits assumed): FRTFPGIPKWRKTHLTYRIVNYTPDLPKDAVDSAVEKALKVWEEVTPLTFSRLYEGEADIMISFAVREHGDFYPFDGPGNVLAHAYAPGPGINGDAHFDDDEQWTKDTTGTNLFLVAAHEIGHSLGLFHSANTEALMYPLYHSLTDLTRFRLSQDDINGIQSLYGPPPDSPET
From the text: as §1, §2, §3
It should be appreciated that the assay buffer used with MMP-3CD was 50 mM of 2-morpholinoethanesulfonic acid monohydrate (“MES”) at pH 6.0 rather than the HEPES buffer at pH 7.0 described above.

Chain of MMP-9FL (full length Gelatinase B) (P14780 94-707, species assumed): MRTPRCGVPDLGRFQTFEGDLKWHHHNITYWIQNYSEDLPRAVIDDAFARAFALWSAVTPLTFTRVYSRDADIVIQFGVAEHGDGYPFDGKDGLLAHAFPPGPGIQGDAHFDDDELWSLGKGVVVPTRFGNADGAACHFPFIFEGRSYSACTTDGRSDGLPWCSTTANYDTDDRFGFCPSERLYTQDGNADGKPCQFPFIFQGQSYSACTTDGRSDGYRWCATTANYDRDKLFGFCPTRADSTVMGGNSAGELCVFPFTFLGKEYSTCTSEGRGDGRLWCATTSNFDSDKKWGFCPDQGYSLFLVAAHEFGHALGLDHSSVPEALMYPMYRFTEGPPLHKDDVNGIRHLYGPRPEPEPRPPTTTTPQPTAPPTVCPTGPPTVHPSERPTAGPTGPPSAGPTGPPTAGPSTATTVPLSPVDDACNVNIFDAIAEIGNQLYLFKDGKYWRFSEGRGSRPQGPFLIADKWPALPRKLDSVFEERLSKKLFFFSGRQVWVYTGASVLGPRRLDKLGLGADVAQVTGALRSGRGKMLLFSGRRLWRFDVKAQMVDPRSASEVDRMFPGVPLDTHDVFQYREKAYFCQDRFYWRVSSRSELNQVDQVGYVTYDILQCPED

Take `Cc1ccc(-c2ccc(S(=O)(=O)N3CCSC(C)(C)[C@@H]3C(=O)O)cc2)s1` [Example 52, (S)-2,2-Dimethyl-4-[4-(5-methyl-thiophen-2-yl)-benzenesulfonyl]-thiomorpholine-3-carboxylic acid]: the IC50 (as a rule, the concentration at which inhibition is half-maximal) came to 0.52 µM in assay [1], 0.036 µM in assay [2], 0.013 µM in assay [3] and 0.014 µM in assay [4].
As to `CC1(C)SCCN(S(=O)(=O)c2ccc(-c3ccc(C(F)(F)F)cc3)cc2)[C@H]1C(=O)O` [Example 57, (S)-2,2-Dimethyl-4-(4′-trifluoromethyl-biphenyl-4-sulfonyl)-thiomorpholine-3-carboxylic acid], the IC50 in assay [1] worked out at 0.54 µM; in assay [2], 0.013 µM; in assay [3], 0.0088 µM; in assay [4], 0.0045 µM.
Taken in the same sequence, the figures for `CC1(C)SCCN(S(=O)(=O)c2ccc(-c3cccc4ccccc34)cc2)[C@H]1C(=O)O` [Example 28, (S)-2,2-Dimethyl-4-(4-naphthalen-1-yl-benzenesulfonyl)-thiomorpholine-3-carboxylic acid] were 22.8 µM, 2.67 µM, 2.07 µM and 2.2 µM.
For `COc1cccc(OC)c1-c1ccc(S(=O)(=O)N2CCSC(C)(C)[C@@H]2C(=O)O)cc1` [Example 60, (S)-4-(2′,6′-Dimethoxy-biphenyl-4-sulfonyl)-2,2-dimethyl-thiomorpholine-3-carboxylic acid], the IC50 in assay [2] is 25.5 µM; in assay [3], 39 µM; in assay [4], 9.95 µM.
Consider `CC(C)c1ccc(-c2ccc(S(=O)(=O)N3CCSC(C)(C)[C@@H]3C(=O)O)cc2)cc1` [Example 44, (S)-4-(4′-Isopropyl-biphenyl-4-sulfonyl)-2,2-dimethyl-thiomorpholine-3-carboxylic acid], for which the IC50 stood at 0.37 µM in assay [1], 0.02 µM in assay [2], 0.015 µM in assay [3] and 0.0088 µM in assay [4].
Turning to `CC1(C)SCCN(S(=O)(=O)c2ccc(-c3ccc(F)cc3)cc2)[C@H]1C(=O)O` [Example 32, (S)-4-(4′-Fluoro-biphenyl-4-sulfonyl)-2,2-dimethyl-thiomorpholine-3-carboxylic acid], the IC50 in assay [1] was 4.43 µM; in assay [2] it was 0.145 µM; in assay [3] it was 0.133 µM; in assay [4], 0.0365 µM.
Consider `CC1(C)SCCN(S(=O)(=O)c2ccc(-c3ccc(Cl)cc3)cc2)[C@H]1C(=O)O` [Example 29, (S)-4-(4′-Chloro-biphenyl-4-sulfonyl)-2,2-dimethyl-thiomorpholine-3-carboxylic acid], for which the half-maximal inhibitory concentration (IC50) in assay [1], in assay [2], in assay [3] and in assay [4] was above 100 µM in each case.
For the compound `CC1(C)SCCN(S(=O)(=O)c2ccc(-c3ccc4c(c3)OCO4)cc2)[C@H]1C(=O)O` [Example 33, (S)-4-(4-1,3-Benzodioxol-5-yl-benzenesulfonyl)-2,2-dimethyl-thiomorpholine-3-carboxylic acid], the IC50 in assay [1] was 3.15 µM; in assay [2], 0.0443 µM; in assay [3] it was 0.0185 µM; in assay [4], 0.0148 µM.
For `CC(C)(C)c1ccc(-c2ccc(S(=O)(=O)N3CCSC(C)(C)[C@@H]3C(=O)O)cc2)cc1` [Example 49, (S)-4-(4′-tert-Butyl-biphenyl-4-sulfonyl)-2,2-dimethyl-thiomorpholine-3-carboxylic acid] the same measures were 1.5 µM, 0.061 µM, 0.23 µM and 0.039 µM.
Taken in the same sequence, the figures for `CC1(C)SCCN(S(=O)(=O)c2ccc(-c3cccc(OC(F)(F)F)c3)cc2)[C@H]1C(=O)O` [Example 59, (S)-2,2-Dimethyl-4-(3′-trifluoromethoxy-biphenyl-4-sulfonyl)-thiomorpholine-3-carboxylic acid] were 30 µM, 5.3 µM, 5.2 µM and 1.1 µM.
Consider `CC1(C)SCCN(S(=O)(=O)c2ccc(-c3cccc(F)c3)cc2)[C@H]1C(=O)O` [Example 58, (S)-4-(3′-Fluoro-biphenyl-4-sulfonyl)-2,2-dimethyl-thiomorpholine-3-carboxylic acid], for which the IC50 in assay [1] was 6.3 µM; in assay [2], 0.425 µM; in assay [3] it was 0.134 µM; in assay [4], 0.082 µM.
Taken in the same sequence, the figures for `CC1(C)SCCN(S(=O)(=O)c2ccc(-c3cccc([N+](=O)[O-])c3)cc2)[C@H]1C(=O)O` [Example 27, (S)-2,2-Dimethyl-4-(3′-nitro-biphenyl-4-sulfonyl)-thiomorpholine-3-carboxylic acid] were above 100 µM, above 100 µM, above 100 µM and above 100 µM.
Taken in the same sequence, the figures for `CC1(C)SCCN(S(=O)(=O)c2ccc(-c3ccc(F)c(Cl)c3)cc2)[C@H]1C(=O)O` [Example 42, (S)-4-(3′-Chloro-4′-fluoro-biphenyl-4-sulfonyl)-2,2-dimethyl-thiomorpholine-3-carboxylic acid] were 9.15 µM, 0.113 µM, 0.16 µM and 0.0289 µM.
For `CC1(C)SCCN(S(=O)(=O)c2ccc(-c3cccc(C=O)c3)cc2)[C@H]1C(=O)O` [Example 35, (S)-4-(3′-Formyl-biphenyl-4-sulfonyl)-2,2-dimethyl-thiomorpholine-3-carboxylic acid] the same measures were 0.479 µM, 0.021 µM, 0.035 µM and 0.0154 µM.
Take `CC1(C)SCCN(S(=O)(=O)c2ccc(-c3ccc(C=O)cc3)cc2)[C@H]1C(=O)O` [Example 30, (S)-4-(4′-Formyl-biphenyl-4-sulfonyl)-2,2-dimethyl-thiomorpholine-3-carboxylic acid]: the IC50 was found to be 3.6 µM in assay [1], 0.096 µM in assay [2], 0.042 µM in assay [3] and 0.0154 µM in assay [4].
As for `Cc1cccc(-c2ccc(S(=O)(=O)N3CCSC(C)(C)[C@@H]3C(=O)O)cc2)c1` [Example 31, (S)-2,2-Dimethyl-4-(3′-methyl-biphenyl-4-sulfonyl)-thiomorpholine-3-carboxylic acid], the IC50 was 1.57 µM in assay [1], above 100 µM in assay [2], above 100 µM in assay [3] and above 100 µM in assay [4].
For `Cc1cc(-c2ccc(S(=O)(=O)N3CCSC(C)(C)[C@@H]3C(=O)O)cc2)ccc1F` [Example 51, (S)-4-(4′-Fluoro-3′-methyl-biphenyl-4-sulfonyl)-2,2-dimethyl-thiomorpholine-3-carboxylic acid], the 50% inhibitory concentration (IC50) in assay [1] turned out to be 1 µM; in assay [2], 0.012 µM; in assay [3], 0.027 µM; in assay [4], 0.01 µM.
On to `CC1(C)SCCN(S(=O)(=O)c2ccc(-c3cccc(C#N)c3)cc2)[C@H]1C(=O)O` [Example 62, (S)-4-(3′-Cyano-biphenyl-4-sulfonyl)-2,2-dimethyl-thiomorpholine-3-carboxylic acid], for which the IC50 in assay [2] stood at 4.9 µM; in assay [3], 6.2 µM; in assay [4] it was 0.83 µM.
For `CC1(C)SCCN(S(=O)(=O)c2ccc(-c3ccccc3C=O)cc2)[C@H]1C(=O)O` [Example 63, (S)-4-(2′-Formyl-biphenyl-4-sulfonyl)-2,2-dimethyl-thiomorpholine-3-carboxylic acid] the same measures were 62.5 µM, 68 µM and 21 µM.
